According to patent US20260078105A1, “Novel Aminocarboxymuconate Semialdehyde Decarboxylase Inhibitors” (OrsoBio, Inc., priority 2023, published 2026):

Molecular target: T1, ACMSD (Mus musculus, UniProt Q8R519)
T1 construct: endogenous in cells; host or cells: primary mouse hepatocytes (frozen, commercial)
Assay: Quinolinic acid (QA) levels in primary mouse hepatocytes by LC-MS/MS, as indicator of ACMSD inhibition
Assay type: cell-based
Conditions: 3 μM compound, six hours, 500 μM tryptophan, ratio of QA formed with compound versus wells with no compound (DMSO)
Description: Frozen primary mouse hepatocytes were thawed as per manufacturer's instructions and seeded at a density of 300,000 cells/well of a 6-well plate. After resting for a few hours, the cells were incubated with 3 μM of compound resuspended in DMSO in serum-free William's E media supplemented with 500 μM of tryptophan for six hours. After six hours, the cells were washed with phosphate buffer saline (PBS) and harvested in pre-cooled crashing solution (acetonitrile:methanol:water (40%:40%:20% w/w)) containing internal standard (telmisartan and/or verapamil). Ammonium bicarbonate (15%; 30 μL) was added to the lysates, incubated on dry ice for 10 min, centrifuged for 10 min at 14000 rpm and QA levels were quantified using optimized LC-MS/MS methods using an Atlantis, T3 3 μm, 150×4.6 mm column, and 0.1% formic acid in water and 0.2% formic acid in methanol as mobile phase A and B, respectively. The results are shown in Table 1 as a ratio of the amount of QA formed with compound versus the amount of QA in wells with no compound (DMSO). ACMSD is at the junction of the metabolic pathway of tryptophan. Increased QA levels or decreased PA levels would both be indicative of inhibition of ACMSD. When mouse hepatocytes are treated with the compounds of the invention, increased QA levels are observed and are therefore inhibitors of ACMSD.

T1 sequence (Q8R519 whole entry): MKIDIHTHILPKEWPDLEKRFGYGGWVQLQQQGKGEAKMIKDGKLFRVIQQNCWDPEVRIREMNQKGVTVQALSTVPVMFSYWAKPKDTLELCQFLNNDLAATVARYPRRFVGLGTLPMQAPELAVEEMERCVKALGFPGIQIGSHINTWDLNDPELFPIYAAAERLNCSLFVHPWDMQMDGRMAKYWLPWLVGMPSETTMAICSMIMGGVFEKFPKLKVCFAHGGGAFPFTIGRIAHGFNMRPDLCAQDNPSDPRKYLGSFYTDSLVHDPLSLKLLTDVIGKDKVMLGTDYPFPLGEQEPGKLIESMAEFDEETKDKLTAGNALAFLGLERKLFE

Structure (SMILES)	Quinolinic acid ratio (Range)
N#Cc1c(SCc2nnn[nH]2)[nH]c(=O)c(C(=O)N2CCCC2)c1-c1cccc(-c2ccccc2)c1 [Compound 126, 2-(((1H-tetrazol-5-yl)methyl)thio)-4-([1,1′-biphenyl]-3-yl)-6-oxo-5-(pyrrolidine-1-carbonyl)-1,6-dihydropyridine-3-carbonitrile]	** (<4 to 6)
N#Cc1c(SCc2nnn[nH]2)[nH]c(=O)c(C(=O)N2CCCC2)c1-c1ccc(Cl)cc1 [Compound 125, 2-(((1H-tetrazol-5-yl)methyl)thio)-4-(4-chlorophenyl)-6-oxo-5-(pyrrolidine-1-carbonyl)-1,6-dihydropyridine-3-carbonitrile]	** (<4 to 6)
CNC(=O)c1c(-c2ccc(Cl)cc2)c(C#N)c(SCc2nnn[nH]2)[nH]c1=O [Compound 127, 6-(((1H-tetrazol-5-yl)methyl)thio)-4-(4-chlorophenyl)-5-cyano-N-methyl-2-oxo-1,2-dihydropyridine-3-carboxamide]	* (2 to 4)
N#Cc1c(SCc2nnn[nH]2)[nH]c(=O)c(Cl)c1-c1cccc(C(=O)Nc2ccccc2)c1 [Compound 123, 3-(6-(((1H-tetrazol-5-yl)methyl)thio)-3-chloro-5-cyano-2-oxo-1,2-dihydropyridin-4-yl)-N-phenylbenzamide]	** (<4 to 6)
N#Cc1c(SCc2nnn[nH]2)[nH]c(=O)c(C(=O)Nc2ccccc2)c1-c1ccc(Cl)cc1 [Compound 124, 6-(((1H-tetrazol-5-yl)methyl)thio)-4-(4-chlorophenyl)-5-cyano-2-oxo-N-phenyl-1,2-dihydropyridine-3-carboxamide]	** (<4 to 6)

More lines, now with the values ahead:

Quinolinic acid ratio (Range)	Structure (SMILES)
* (2 to 4)	O=C(O)c1cccc(CSc2nc(-c3ccccc3)nc(=O)[nH]2)c1 [Compound 128, 3-(((6-oxo-4-phenyl-1,6-dihydro-1,3,5-triazin-2-yl)thio)methyl)benzoic acid]
* (2 to 4)	N#Cc1c(-c2ccccc2)nc(=O)[nH]c1SCC(=O)O [Compound 131, 2-((5-cyano-2-oxo-6-phenyl-2,3-dihydropyrimidin-4-yl)thio)acetic acid]
— (<2)	CC(C)Oc1nc(SCc2nnn[nH]2)[nH]c(=O)n1 [Compound 133, 6-(((1H-tetrazol-5-yl)methyl)thio)-4-isopropoxy-1,3,5-triazin-2(1H)-one]
